From US20070161691A1, “Modified-protein formation inhibitor” (TOKAI UNIVERSITY, priority 2003, published 2007)

Assays:
[1] = system: middle cerebral artery ischemia-reperfusion model; assay: Cerebroprotective action in middle cerebral artery ischemia-reperfusion model; format: in vivo, rat
Protocol: CD(SD)IGS male rats (Japan Charles River Kabushiki […], Hino farm, room No. 22, specific product) (8 rats per one group) having body weight 270 to 350 g were anesthetized by 2% isoflurane (mixed bas comprising of 70% N2O (laughter gas) and 30% O2) to immobilize, and then the rats were put on warming plate to keep the rectal and brain temperature 37 to 38° C. After that, to observe the stability in the examination, canula which was made by polyethylene (PE-50, Becton Dickinson) was inserted and left in caudal artery of said animal, and this made blood drawing and blood pressure determining to monitor the biochemical parameter such as blood sugar level, hematocrit, CO2 concentration, oxygen partial pressure, pH, blood pressure and etc. In addition, cerebral blood flow in cortex was determined by laser doppler […] (Neuroscience.inc: OMEGA FLOW (FLO-C1)), putting the detection site directly on cranium on the point left 4 mm from bregma. Left neck of such animal was incised, and from internal and external carotid fork of common carotid artery to upstream of internal carotid, nylon surgical thread (length 16 mm, diameter 0.2 to 0.3 mm, with silicon coating on its tip 3 mm) was passed and left, middle cerebral artery was obstructed for 2 hours. After that, the thread was removed to release the middle cerebral artery, and blood was reperfused for 21 hours. To each animals, 3.0 mg/kg of 3-methyl-1-phenyl 2-pyrazolin-5-one (control, hereinafter referring to edaravone) and 4.23 mg/kg of 4-(5-phenyltetrazol-1-ylmethyl)-morpholine (compound 1) (test compound, hereinafter referring to TM-3001) were respectively administered twice by cannula which is left in caudal artery 5 minutes and 5 hours after middle cerebral artery occlusion. After said operation, the brain was removed from said animal, and after preparing 7 brain slices with 2 mm thickness, to TTC stain (0.8 g of 2,3,5-triphenyltetrazolium chloride (Sigma) dissolved in 40 ml of saline) were soaked at 37° C. for 15 minutes to stain, and fixed by 10% neutral formalin liquid to prepare specimen. Such specimens were created the image by CCD camera respectively, and analysed according to method of Swanson et al. (J Cereb Blood Flow Metab 10:290-293; […]). […] Furthermore, function recovering was estimated before and after the operation by rotor rod test that estimates how much they can walk on rotating rotor.

[2] = system: middle cerebral artery ischemia-reperfusion model; assay: as above; format: in vivo, rat; conditions: after reperfusion 22 hrs
[3] = comparing to diluent single administration

For `CC1=NN(c2ccccc2)C(=O)C1` [Edaravone, 3-methyl-1-phenyl 2-pyrazolin-5-one, reference compound], the “Nervous condition estimation test, Ave (Bederson grade)” value (“Nervous condition estimation test, Ave” below) ([1]; after occlusion 10 min) was 2.8, the “Nervous condition estimation test, Ave” value ([1]; after occlusion 2 hrs) was 2.7 and the “Nervous condition estimation test, Ave” value ([1]; after reperfusion 10 min) was 2.2. The “Nervous condition estimation test, Ave” value ([1]; after reperfusion 3 hrs) was 2.1, the “Nervous condition estimation test, Ave” value ([1]; after reperfusion 4 hrs) was 2.0 and the “rotor rod test, Ave (count from rotor rod machine)” value ([1]; before occlusion) was 197.0. The “improvement for nervous condition” value [1, 3] was “remarkably shown”, the “recovering the function, rotor rod test” value [1, 3] was “remarkably shown” and the cerebral infarction nest ([1]; comparing to diluent single administration, dosed 5 minutes and 5 hours after occlusion) was “significantly reduced”. The “rotor rod test, Ave (count from rotor rod machine)” value ([1]; reperfusion) was 153.1, the “rotor rod test, ratio to before occlusion (%), Ave” value ([1]; reperfusion vs before occlusion) was 160.4% and the “Nervous condition estimation test, Ave” value [2] was 1.5.
